Data on 1 molecule can be found in patent US20250205268A1, “TREATMENT OF VIRUSES WITH ANTIVIRAL NUCLEOSIDES” (priority 2021, published 2025).

The structures appear in SMILES notation.

Data set [1] deals with SARS-CoV-2. The following applies: in vivo.
In data set [2] the test system is SARS-CoV-2.

In the case of `CC(C)C(=O)OC[C@H]1O[C@@H](n2ccc(NO)nc2=O)[C@H](O)[C@@H]1O` [Compound A, {(2R,3S,4R,5R)-3,4-dihydroxy-5-[4-(hydroxyimino)-2-oxo-3,4-dihydropyrimidin-1 (2H)-yl]oxolan-2-yl}methyl 2-methylpropanoate], in the data set on SARS-CoV-2 [1], the “participants hospitalized or died through Day 29” value is given as ~3% and the “percentage of mutations in viral RNA post-treatment at Day 5” value is recorded as “highest percentage of mutations”. Further, the “mean SARS-CoV-2 viral RNA mutation rates per 10,000 nucleotides” value with SARS-CoV-2 [2] (800 mg, end of therapy) was 5.9 per 10,000 nucleotides. In addition, the Drug-related adverse events in the data set on SARS-CoV-2 [2] (human, in vivo) is recorded as 11.0%.
